Reference: US20070009444A1, “Method for preparing powder exhibiting low susceptibility to electrification” (priority 2003, published 2007)

Experiments:
Assay type in all cases: physicochemical
[1] = Measurement of charge amount (Espartoanalyzer, sample mixed with iron powder 1:9, 500 V); conditions: for Average of charge: average of two measurements
From the text: In the present specification, the term “lowly-charged powder” means powder in which negative charge of surface potential is reduced (powder unsusceptible to negative charge) and encompasses positively charged powder. Concretely, it means powder having an average electric charge, measured with a particle charge distribution measuring device (for example, particle charge distribution measuring device using Laser Doppler speed meter), of not less than −2 q/m (namely, electric charge is negative and its absolute value is not more than 2, or electric charge is zero or positive value), preferably of not less than −1 q/m. The average electric charge is preferably not more than +5, more preferably not more than +3, and most preferably not more than +1. Measurement of electric charge may be conducted according to a manual of the device, and a condition and a measuring device are not particularly limited. For instance, after mixing a compound to be measured and iron powder in a ratio of about 1:9, about 1 g of mixture is collected. […]
400 mg of the acetaminophen powder containing PEG4000 (Acetaminophen:PEG=32:1, PEG adding ratio 0.03) obtained in Example 1 and 3600 mg of iron powder (TEFV-200/300 (registered trademark, Powdertech) as a carrier were filled into a glass vessel, and the mixture was mixed by hands for ten seconds. About 1 g of thus-obtained sample (true density of the particles: 1.20 g/cm^3) were collected and the charge amount was measured using Espartoanalyzer (Hosokawa Micron company). […]
Charge amount of the acetaminophen powder (without adding PEG) was measured by the same method as described above as a control (numbers of particles: 500).
Charge amount of each sample was measured twice and the average of the results are shown below.
Charge amount of the following samples were measured by the same method as Experiment 1. • i) 300 mg of Compound (I-1) […]

[2] = Measurement of bulk density (3 cc vessel, tapped three times)
From the text: As an index for charge suppression of the obtained powder, bulk. density of the powder may be examined rather than measuring surface potential of the powder. […] When the bulk density is not less than 0.25 g/cc, preferably 0.28 g/cc, suction by a machine and transfer from a filling machine to a filling vessel may be conducted favorably, and a certain operability must be secured. The bulk density is a value determined in the manner as described below. First, 3 cc of sample to be measured is put into a vessel, and then the vessel is lightly tapped several to 10 times, preferably about 3 times. When the bulk is reduced, powder is supplemented, and this operation is repeated. At the time when the bulk no longer changes, a sample weight per 1 cc is determined. The bulk density of lowly-charged powder determined in the method of the present invention is 1.5 times or more, preferably 1.6 times or more, and further preferably 1.8 times or more the “bulk density of highly-charged compound”, “bulk density of powder obtained by drying a liquid composition containing a highly-charged compound and an additive other than PEG” or “bulk density of powder obtained by drying a liquid composition containing a pharmaceutically active compound”.
The bulk density of the acetaminophen powder containing PEG4000 (PEG adding ratio 0.03) obtained in Example 1 and the Compound (I-1) powder containing PEG4000 obtained in Example 2 were measured.
The powder was added to a vessel to reach the scale of 3 cc in a dry box and tapped three times. When the bulk is reduced, powder is added to the vessel to reach the scale of 3 cc and the same operation was repeated.
When the bulk no longer changed at 3 cc, addition of the powder was stopped and the bulk density (g/cc) was measured at that time.
Bulk densities of the acetaminophen powder (without adding PEG) and the Compound (I-1) powder (without adding PEG) were measured by the same method as controls.

[3] = Observation of spray dried powder (transit performance, coloring, operability)
Experimental: Acetaminophen and PEG4000 were mixed at the following ratio: acetaminophen-PEG4000=2.8 g-701 mg (Mixed ratio 4:1, PEG adding ratio 0.25 (weight of PEG (mg) relative to 1 mg of pharmaceutical active compound)), acetaminophen-PEG4000=2.8 g-351 mg (Mixed ratio 8:1, PEG adding ratio 0.125), acetaminophen-PEG4000=2.8 g-176 mg (Mixed ratio 16:1, PEG adding ratio 0.06), and acetaminophen-PEG4000=14 g-437 mg (Mixed ratio 32:1, PEG adding ratio 0.03). The final concentration of acetaminophen was adjusted to 1.4% by weight by adding suitable amount of water and the solution was spray dried under the conditions mentioned below.
FIG. 1 is a photograph of the acetaminophen powder (PEG adding ratio 0.03) and FIG. 2 is a photograph of the acetaminophen powder(without adding PEG). • Spray drying condition • Spray dryer: Spray dryer SD-1000 (Tokyo Rikakikai Co., Ltd.) • Speed of pump: scale 30 (about 6 mL/min) • IN-let temperature: 170° C. • Out-let temperature: 95 to 100° C. • Drying air volume: 0.60 m^3/min • Spray drying pressure: 70 kPa
Compound (I-1) powder was manufactured by a similar manner to Example 2 except that PEG400 (111 mg) (PEG adding ratio 0.37) was used instead of PEG4000 and the final concentration of Compound (I-1) in the solution was adjusted to 19% by weight. […]

[4] = Measurement of dissolution time (powder in 10 ml distilled water for injection, vial shaken)
Experimental: The dissolving time is determined by shaking a vessel containing 300 mg of sample to be measured and 10 mL of water. In the case of pharmaceuticals, the sample to be measured should contain 300 mg of pharmaceutically active compound, and may contain a pharmaceutical additive. The shaking manner and time are not particularly limited. Concretely, measurement may be conducted according to the method described in Test example 3 described later.
The Compound (I-1) powder containing PEG (about 300 mg) which was obtained in Example 2 or 3 was filled in a vial (the capacity to the shoulder is 20 ml). After 10 ml of distilled water for injection was added to the vial, the vial was shaken 20 times (arm length: about 20 centimeters, the amplitude: […] and shaking speed: 20 times/ten seconds), and the dissolution time was measured.
(§1) 300 mg of Compound (I-l) and 150 mg of D-mannitol were mixed with suitable amount of sodium hydroxide. The solutions having various concentration (pH 9.5 to 9.75) were prepared. Thus-obtained solutions were spray dried under the same conditions as Example 1. The dissolution time of the obtained powder was measured by the same method as the above-mentioned Experiment 3. The particle diameter was measured under the following conditions. • Measuring condition of dry powder tester • Dry powder tester: SK Laser micron sizer LMS-30 (SEISHIN ENTERPRISE Co., Ltd.) • Carrier fluid: compressed air […] • Sample: about 20 to 30 mg

[5] = Particle diameter by dry powder tester (SK Laser micron sizer LMS-30); conditions: no PEG, with D-mannitol and NaOH, spray dried
Experimental: The method of measuring “average particle size” used herein is not particularly limited, and measurement may be conducted in accordance with a manual of the particle size meter to be used. For example, about 20 to 30 mg of powder to be measured for its diameter is taken, and placed in the particle size meter for conducting measurement.
as §1

CC(=O)Nc1ccc(O)cc1 [Acetaminophen, acetaminophen]
Average of charge ([1]; acetaminophen powder spray dried with PEG4000, PEG adding ratio 0.03): −1.43 q/m
Average of charge ([1]; acetaminophen powder without adding PEG, ratio 0): −12.86 q/m
Bulk density ([2]; solution 1.4% by weight, PEG4000, PEG adding ratio 0.03, spray dried): 0.659 g/cc
Bulk density ([2]; solution 1.4% by weight, without adding PEG, spray dried): 0.398 g/cc
Coloring of powder ([3]; spray dried solution containing only acetaminophen, without adding PEG (control)): a little coloring
Coloring of powder ([3]; spray dried with PEG4000, PEG adding ratio 0.25, 0.125, 0.06, 0.03 (all samples)): non-coloring

CC1(C)CC[C@]2(C(=O)[O-])CC[C@]3(COC(=O)/C=C/c4cc(O)ccc4NC(=O)/C=C/C(=O)[O-])C(=CC[C@@H]4[C@@]5(C)CCC(=O)C(C)(C)[C@@H]5CC[C@]43C)[C@@H]2C1.[Na+].[Na+] [Compound (I-1)]
Electric charge ([1]; Experiment 2; i) non-additive, 3000 particles; ii) PEG4000 + D-mannitol, PEG adding ratio 0.4, 505 particles): −2.57 q/m
Bulk density ([2]; solution 18% by weight, PEG4000, PEG adding ratio 0.37, spray dried): 0.395 g/cc
Bulk density ([2]; solution 18% by weight, without adding PEG, spray dried): 0.206 g/cc
Dissolution time ([4]; no PEG, with D-mannitol and NaOH, solution 5% by weight (pH 9.5), spray dried): 40 s
Dissolution time ([4]; no PEG, with D-mannitol and NaOH, solution 10% by weight, spray dried): 10 s
Dissolution time ([4]; no PEG, with D-mannitol and NaOH, solution 19% by weight (pH 9.75), spray dried): under 20 second
Dissolution time ([4]; solution before drying 5% by weight, PEG4000, PEG adding ratio 0.37): 10 s
Dissolution time ([4]; solution before drying 5% by weight, non-additive, PEG adding ratio 0): 40 s
Dissolution time ([4]; solution before drying 19% by weight, PEG400, PEG adding ratio 0.37): 10 s
Particle diameter ([5]; solution 5% by weight (pH 9.5)): 8.9 μm
Particle diameter ([5]; solution 10% by weight): 10.1 μm
Particle diameter ([5]; solution 19% by weight (pH 9.75)): 11.6 μm
